According to PubChem BioAssay AID248 (DTP/NCI, 2004):
Several values for one entry are separate records, joined by “and”; a condition that tells them apart may be missing. Equal entries are not always repeated. Inconclusive results and toxic doses are left out. Rule as the data show it: active = T/C of 150% or more; inactive = T/C below 125%.

System: L1210 leukemia ip in BDF1 mice, survival T/C
Assay: NCI In Vivo Anticancer Drug Screen. Data for tumor model L1210 Leukemia (intraperitoneal) in B6D2F1 (BDF1) mice
Conditions: endpoint: mean survival time, higher = longer survival
Method in brief: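 Antitumor effect is assessed in tumor-bearing animals. Survival in the compound arm is compared with a vehicle-dosed control arm and expressed as their quotient.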

[1] = dose: 100.0 mg/kg/injection, schedule: Q04DX003 (ip), vehicle: saline
[2] = dose: 200.0 mg/kg/injection, schedule: Q04DX003 (ip), vehicle: saline
[3] = dose: 400.0 mg/kg/injection, schedule: Q04DX003 (ip), vehicle: saline
[4] = dose: 100.0 mg/kg/injection, schedule: Q01DX009 (ip), vehicle: saline
[5] = dose: 200.0 mg/kg/injection, schedule: Q01DX009 (ip), vehicle: saline
[6] = dose: 100.0 mg/kg/injection, schedule: Q01DX001 (ip), vehicle: Klucel (hydroxypropylcellulose) (HPC)
[7] = dose: 200.0 mg/kg/injection, schedule: Q01DX001 (ip), vehicle: Klucel (hydroxypropylcellulose) (HPC)
[8] = dose: 400.0 mg/kg/injection, schedule: Q01DX001 (ip), vehicle: Klucel (hydroxypropylcellulose) (HPC)
[9] = dose: 100.0 mg/kg/injection, schedule: Q01DX001 (ip), vehicle: saline
[10] = dose: 200.0 mg/kg/injection, schedule: Q01DX001 (ip), vehicle: saline
[11] = dose: 400.0 mg/kg/injection, schedule: Q01DX001 (ip), vehicle: saline
[12] = dose: 50.0 mg/kg/injection, schedule: Q01DX009 (ip), vehicle: Klucel (hydroxypropylcellulose) (HPC)
[13] = dose: 100.0 mg/kg/injection, schedule: Q01DX009 (ip), vehicle: Klucel (hydroxypropylcellulose) (HPC)
[14] = dose: 100.0 mg/kg/injection, schedule: Q04DX003 (ip), vehicle: Klucel (hydroxypropylcellulose) (HPC)
[15] = dose: 100.0 mg/kg/injection, schedule: Q04DX003 (ip), vehicle: saline with Tween-80
[16] = dose: 200.0 mg/kg/injection, schedule: Q04DX003 (ip), vehicle: saline with Tween-80
[17] = dose: 400.0 mg/kg/injection, schedule: Q04DX003 (ip), vehicle: saline with Tween-80
[18] = dose: 100.0 mg/kg/injection, schedule: Q01DX009 (ip), vehicle: saline with Tween-80
[19] = dose: 200.0 mg/kg/injection, schedule: Q01DX009 (ip), vehicle: saline with Tween-80
[20] = dose: 400.0 mg/kg/injection, schedule: Q01DX009 (ip), vehicle: saline with Tween-80
[21] = dose: 200.0 mg/kg/injection, schedule: Q01DX009 (ip), vehicle: Klucel (hydroxypropylcellulose) (HPC)

Measured: T/C

c1ccc2cc3nc4ccccc4nc3cc2c1
inactive: dose: 100.0 mg/kg/injection, schedule: Q01DX001 (ip), vehicle: acetone 92 % of control | [1] 108 % of control | dose: 200.0 mg/kg/injection, schedule: Q01DX001 (ip), vehicle: acetone 97 % of control | [2] 101 % of control | dose: 400.0 mg/kg/injection, schedule: Q01DX001 (ip), vehicle: acetone 86 % of control | [3] 111 % of control

O=[N+]([O-])c1cccc(S(=O)(=O)O)c1
inactive: dose: 50.0 mg/kg/injection, schedule: Q01DX009 (ip), vehicle: saline 93 % of control | dose: 50.0 mg/kg/injection, schedule: Q04DX003 (ip), vehicle: saline 97 % of control | [4] 87 % of control | [1] 96 % of control and 100 % of control | [5] 93 % of control | [2] 100 % of control and 102 % of control | [3] 90 % of control

COc1ccc(-n2c(=O)c(N=Nc3ccccc3C)c(O)n(-c3ccc(C)cc3)c2=S)cc1
inactive: [6] 95 % of control | [7] 97 % of control | [8] 97 % of control

CSCSCC(NC(=O)c1ccccc1)C(=O)O (centres undefined)
inactive: [9] 104 % of control | dose: 150.0 mg/kg/injection, schedule: Q04DX003 (ip), vehicle: saline 90 % of control | [10] 104 % of control | dose: 300.0 mg/kg/injection, schedule: Q04DX003 (ip), vehicle: saline 87 % of control | [11] 98 % of control | dose: 600.0 mg/kg/injection, schedule: Q04DX003 (ip), vehicle: saline 92 % of control

CC(C)=NC(=O)NO.[Cl][Co][Cl]
inactive: dose: 9.4 mg/kg/injection, schedule: Q04DX003 (ip), vehicle: saline 100 % of control | dose: 18.75 mg/kg/injection, schedule: Q04DX003 (ip), vehicle: saline 107 % of control | dose: 37.5 mg/kg/injection, schedule: Q04DX003 (ip), vehicle: saline 107 % of control | dose: 75.0 mg/kg/injection, schedule: Q01DX001 (ip), vehicle: saline 103 % of control

CCCCN(CCCC)CCCNC(=O)OCC
inactive: dose: 25.0 mg/kg/injection, schedule: Q01DX009 (ip), vehicle: Klucel (hydroxypropylcellulose) (HPC) 92 % of control | [12] 94 % of control | dose: 50.0 mg/kg/injection, schedule: Q04DX003 (ip), vehicle: Klucel (hydroxypropylcellulose) (HPC) 100 % of control | [13] 106 % of control and 87 % of control | [14] 103 % of control

CN1CCN(C(=O)C(c2ccccc2)C2(O)CCCC2)CC1 (centres undefined)
inactive: dose: 5.0 mg/kg/injection, schedule: Q01DX001 (ip), vehicle: saline 96 % of control | dose: 10.0 mg/kg/injection, schedule: Q01DX001 (ip), vehicle: saline 105 % of control

OC1C2CCN(CC2)C1CNC12CC3CC(CC(C3)C1)C2 (centres undefined)
inactive: [1] 97 % of control | [2] 96 % of control

CC(C)(C)c1cc(C=O)cc(C(C)(C)C)c1O
inactive: dose: 100.0 mg/kg/injection, schedule: Q04DX002 (ip), vehicle: saline with Tween-80 95 % of control | dose: 200.0 mg/kg/injection, schedule: Q04DX002 (ip), vehicle: saline with Tween-80 95 % of control | dose: 400.0 mg/kg/injection, schedule: Q04DX002 (ip), vehicle: saline with Tween-80 91 % of control

CCCCCCCCCCCCCCCCCCCC
inactive: dose: 25.0 mg/kg/injection, schedule: Q01DX009 (ip), vehicle: other 109 % of control | dose: 50.0 mg/kg/injection, schedule: Q01DX009 (ip), vehicle: other 101 % of control | dose: 100.0 mg/kg/injection, schedule: Q01DX009 (ip), vehicle: other 93 % of control

O=C1c2cccc(Sc3ccccc3)c2C(=O)c2c(Sc3ccccc3)cccc21
inactive: [15] 91 % of control | [16] 88 % of control | [17] 91 % of control

CCCCOc1ccc(C=Nc2ccc(CC)cc2)cc1
inactive: [18] 94 % of control | [19] 102 % of control | [20] 97 % of control

CC(=O)c1cc(Cl)ccc1Cl
inactive: dose: 100.0 mg/kg/injection, schedule: Q04DX002 (ip), vehicle: saline 97 % of control | dose: 200.0 mg/kg/injection, schedule: Q04DX002 (ip), vehicle: saline 103 % of control | dose: 400.0 mg/kg/injection, schedule: Q04DX002 (ip), vehicle: saline 103 % of control

CCCCCCCCCCCCCCCCCOc1ccc2ccccc2c1
inactive: dose: 100.0 mg/kg/injection, schedule: Q01DX001 (ip), vehicle: saline with Tween-80 87 % of control | dose: 200.0 mg/kg/injection, schedule: Q01DX001 (ip), vehicle: saline with Tween-80 89 % of control

Cc1ccc(NC(=O)C(Cl)Cl)cc1Cl
inactive: [12] 103 % of control | [13] 107 % of control | [21] 98 % of control

CCN(CC)P1(=O)NCCCO1 (centres undefined)
inactive: [18] 87 % of control | [19] 94 % of control | [20] 92 % of control

COc1ccccc1NC(N)=O
inactive: [15] 98 % of control | [16] 107 % of control | [17] 98 % of control

CCCCCCCCNC12CC3CC(CC(C3)C1)C2
inactive: dose: 3.12 mg/kg/injection, schedule: Q01DX009 (ip), vehicle: saline 99 % of control | dose: 6.25 mg/kg/injection, schedule: Q01DX009 (ip), vehicle: saline 89 % of control | dose: 12.5 mg/kg/injection, schedule: Q01DX009 (ip), vehicle: saline 87 % of control | dose: 12.5 mg/kg/injection, schedule: Q04DX003 (ip), vehicle: saline 110 % of control | dose: 25.0 mg/kg/injection, schedule: Q01DX009 (ip), vehicle: saline 92 % of control | dose: 25.0 mg/kg/injection, schedule: Q04DX003 (ip), vehicle: saline 109 % of control

COc1ccc2c(c1)[nH]c1c(C)nccc12
inactive: dose: 75.0 mg/kg/injection, schedule: Q01DX Z (ip), vehicle: saline 96 % of control | dose: 150.0 mg/kg/injection, schedule: Q01DX Z (ip), vehicle: saline 100 % of control | dose: 300.0 mg/kg/injection, schedule: Q01DX Z (ip), vehicle: saline 96 % of control and 108 % of control

CCOC(=O)CNCc1cccc(Cl)c1
inactive: [4] 98 % of control | [1] 102 % of control | [5] 95 % of control | [2] 100 % of control | [3] 95 % of control

O=C(COc1ccc(Cl)c(Cl)c1)Nc1ccc[n+](Cc2ccc(S(=O)(=O)F)cc2Cl)c1
inactive: [18] 94 % of control

N#CCc1ccc(NN)cc1
inactive: dose: 75.0 mg/kg/injection, schedule: Q01DX009 (ip), vehicle: other 93 % of control | dose: 150.0 mg/kg/injection, schedule: Q01DX009 (ip), vehicle: other 95 % of control

CC(=O)Nc1ccc(C=Nc2ccc3c(c2)Cc2ccccc2-3)cc1
inactive: [13] 91 % of control | [14] 94 % of control | [21] 87 % of control | dose: 200.0 mg/kg/injection, schedule: Q04DX003 (ip), vehicle: Klucel (hydroxypropylcellulose) (HPC) 90 % of control | dose: 400.0 mg/kg/injection, schedule: Q01DX009 (ip), vehicle: Klucel (hydroxypropylcellulose) (HPC) 86 % of control | dose: 400.0 mg/kg/injection, schedule: Q04DX003 (ip), vehicle: Klucel (hydroxypropylcellulose) (HPC) 89 % of control

CCCCCCCCCCCCC1c2ccccc2-c2ccccc21
inactive: [9] 95 % of control | [10] 98 % of control | [11] 107 % of control

CC(C)C1=CC23CCC4C(C)(C(=O)Cl)CCCC4(C)C2CC1C1(Cl)C(=O)OC(=O)C31Cl (centres undefined)
inactive: dose: 75.0 mg/kg/injection, schedule: Q01DX001 (ip), vehicle: other 94 % of control | dose: 150.0 mg/kg/injection, schedule: Q01DX001 (ip), vehicle: other 93 % of control | dose: 300.0 mg/kg/injection, schedule: Q01DX001 (ip), vehicle: other 89 % of control

O=C1C(=O)c2ccccc2C(O)=C1CCCc1ccc(OCc2ccccc2)cc1
inactive: dose: 12.5 mg/kg/injection, schedule: Q01DX009 (ip), vehicle: saline with Tween-80 92 % of control

CCCCCCCCCCCCCSCCSCCCCCCCCCCCCC
inactive: [6] 96 % of control | [7] 86 % of control | [8] 96 % of control
